Source: ChEMBL document CHEMBL1687744, “Furanone at subinhibitory concentrations enhances staphylococcal biofilm formation by luxS repression” (Antimicrob Agents Chemother, 2009)
≈ marks a conversion by molar mass, not a printed value. Values belong to the compound of their own block, whether it stands above or below them. Calls of active or inactive are those of the source. The rule behind the calls is not given here.

Columns and labels:
[1] = system: Staphylococcus epidermidis; assay: Bactericidal activity against Staphylococcus epidermidis 1457 at >50 uM after 18 hrs by CFU count assay; assay type: functional, organism-based
L929 [2] = assay: Cytotoxicity against mouse L929 cells after 24 hrs at 12.1 +/- 5.7 uM by LDH release assay; assay type: cell-based; settings: l929, 24 h
[3] = system: Staphylococcus epidermidis; assay: Induction of biofilm formation in Staphylococcus epidermidis 1457 at 1 to 100 uM after 18 hrs by crystal violet staining; assay type: functional, organism-based
L929 [4] = assay: Cytotoxicity against mouse L929 cells after 24 hrs at 18.6 +/- 12.3 uM by LDH release assay; assay type: cell-based; settings: l929, 24 h
L929 [5] = assay: Cytotoxicity against mouse L929 cells after 24 hrs at 38.35 +/- 15.0 uM by LDH release assay; assay type: cell-based; settings: l929, 24 h
[6] = system: Staphylococcus epidermidis; assay: Effect on agr quorum sensing system in Staphylococcus epidermidis 1457 assessed as RNA3 expression level at 2.5 to 20 uM; assay type: functional, organism-based
[7] = system: Staphylococcus epidermidis; assay: Antimicrobial activity against Staphylococcus epidermidis 1457 by macrodilution method; assay type: functional
Staphylococcus aureus [8] = assay: Increase in biofilm formation in agr gene-deficient Staphylococcus aureus Newman by crystal violet staining; assay type: functional, organism-based
Pseudomonas aeruginosa [9] = assay: Antimicrobial activity against Pseudomonas aeruginosa PAO1 by macrodilution method; assay type: functional
[10] = system: Staphylococcus epidermidis; assay: Bactericidal activity against ica gene-deficient Staphylococcus epidermidis 1457 at >10 uM after 18 hrs by CFU count assay; assay type: functional, organism-based
Pseudomonas aeruginosa [11] = assay: Inhibition of biofilm formation of Pseudomonas aeruginosa PAO1 at 0.322 uM to 2.58 mM; assay type: functional, organism-based
L929 [12] = assay: Cytotoxicity against mouse L929 cells after 24 hrs at 28.4 +/- 8.4 uM by LDH release assay; assay type: cell-based; settings: l929, 24 h
[13] = system: Staphylococcus epidermidis; assay: Induction of biofilm formation in Staphylococcus epidermidis 1457 at 0.1 times MIC to 0.2 X MIC after 18 hrs by crystal violet staining; assay type: functional, organism-based
[14] = system: Staphylococcus epidermidis; assay: Induction of biofilm formation in ica gene-deficient Staphylococcus epidermidis 047 after 18 hrs by crystal violet staining; assay type: functional, organism-based
Staphylococcus aureus [15] = assay: Increase in biofilm formation in Staphylococcus aureus Newman after 18 hrs by crystal violet staining; assay type: functional, organism-based
[16] = system: Staphylococcus epidermidis; assay: Increase in polysaccharide intercellular adhesin in Staphylococcus epidermidis 1457 at 2.5 to 20 uM by ant-PIA staining; assay type: functional, organism-based
[17] = system: Staphylococcus epidermidis; assay: Bactericidal activity against ica gene-deficient Staphylococcus epidermidis 047 at >10 uM after 18 hrs by CFU count assay; assay type: functional, organism-based
Staphylococcus aureus [18] = assay: Induction of biofilm formation in Staphylococcus aureus 113 after 18 hrs by crystal violet staining; assay type: functional, organism-based
Staphylococcus aureus [19] = assay: Antimicrobial activity against Staphylococcus aureus Newman by macrodilution method; assay type: functional
Staphylococcus aureus [20] = assay: Bactericidal activity against Staphylococcus aureus Newman at >10 uM after 18 hrs by CFU count assay; assay type: functional, organism-based
[21] = system: Staphylococcus epidermidis; assay: Induction of biofilm formation in ica gene-deficient Staphylococcus epidermidis 1457 after 18 hrs by crystal violet staining; assay type: functional, organism-based
[22] = system: Staphylococcus epidermidis; assay: Antimicrobial activity against ica gene-deficient Staphylococcus epidermidis 047 by macrodilution method; assay type: functional
[23] = system: Staphylococcus epidermidis; assay: Antimicrobial activity against Staphylococcus epidermidis 047 by macrodilution method; assay type: functional
Bacillus subtilis [24] = assay: Antimicrobial activity against Bacillus subtilis by macrodilution method; assay type: functional
[25] = system: Staphylococcus epidermidis; assay: Reduction luxS mRNA level in Staphylococcus epidermidis 1457 at 20 uM; assay type: functional, organism-based
[26] = system: Staphylococcus epidermidis; assay: Antimicrobial activity against ica gene-deficient Staphylococcus epidermidis 1457 by macrodilution method; assay type: functional
Staphylococcus aureus [27] = assay: Increase in biofilm formation in Staphylococcus aureus Newman by crystal violet staining; assay type: functional, organism-based
[28] = system: Staphylococcus epidermidis; assay: Bactericidal activity against Staphylococcus epidermidis 047 at >10 uM after 18 hrs by CFU count assay; assay type: functional, organism-based
[29] = system: Staphylococcus epidermidis; assay: Bactericidal activity against Staphylococcus epidermidis 1457 at >10 uM after 18 hrs by CFU count assay; assay type: functional, organism-based
[30] = system: Staphylococcus epidermidis; assay: Effect on biofilm formation in luxS gene-deficient Staphylococcus epidermidis 1457 at >10 uM by crystal violet staining; assay type: functional, organism-based
[31] = system: Staphylococcus epidermidis; assay: Increase in biofilm formation in Staphylococcus epidermidis 047 at 0.1 times MIC to 0.2 X MIC after 18 hrs by crystal violet staining; assay type: functional, organism-based
Staphylococcus aureus [32] = assay: Bactericidal activity against Staphylococcus aureus 113 at >10 uM after 18 hrs by CFU count assay; assay type: functional, organism-based
Bacillus subtilis [33] = assay: Induction of biofilm formation in Bacillus subtilis after 18 hrs by crystal violet staining; assay type: functional, organism-based
Staphylococcus aureus [34] = assay: Antimicrobial activity against Staphylococcus aureus 113 by macrodilution method; assay type: functional

Compound: CCCC(OCCOCCOCCN=[N+]=[N-])C1=C(Br)/C(=C/Br)OC1=O (configuration not stated)
Activity [1]: Active
Activity (L929 [2]): 30%
Activity [3]: inactive

Compound: CCCC(Br)C1=C(Br)/C(=C/Br)OC1=O (configuration not stated)
Activity (L929 [4]): 30%
Activity [1]: Active
Activity [3]: inactive

Compound: C#CCOC(CCC)C1=C(Br)/C(=C/Br)OC1=O (configuration not stated)
Activity [1]: Active
Activity (L929 [5]): 30%
Activity [3]: inactive

MIC [7]: 50 µM (≈ 15.5 µg/mL)
MIC (Pseudomonas aeruginosa [9]): > 130 µM
MIC (Staphylococcus aureus [19]): 15 µM (≈ 4.65 µg/mL)
MIC [22]: 30 µM (≈ 9.3 µg/mL)
MIC [23]: 50 µM (≈ 15.5 µg/mL)
MIC (Bacillus subtilis [24]): 100 µM (≈ 31 µg/mL)
MIC [26]: 65 µM (≈ 20.1 µg/mL)
MIC (Staphylococcus aureus [34]): 15 µM (≈ 4.65 µg/mL)
Compound: CCCCC1=C(Br)/C(=C/Br)OC1=O
Activity [6]: inactive
MBC [7]: > 130 µM
Activity (Staphylococcus aureus [8]): Active
MBC (Pseudomonas aeruginosa [9]): > 130 µM
Activity [10]: Active
inhibition (Pseudomonas aeruginosa [11]): Active
Activity (L929 [12]): 30%
Activity [13]: Active
Activity [14]: inactive
Activity (Staphylococcus aureus [15]): Active
Activity [16]: Active
Activity [17]: Active
Activity (Staphylococcus aureus [18]): inactive
Activity [1]: Active
MBC (Staphylococcus aureus [19]): > 130 µM
Activity (Staphylococcus aureus [20]): Active
Activity [21]: inactive
MBC [22]: > 130 µM
MBC [23]: > 130 µM
MBC (Bacillus subtilis [24]): 100 µM (≈ 31 µg/mL)
Activity [25]: Active
MBC [26]: > 130 µM
Activity (Staphylococcus aureus [27]): Active
Activity [28]: Active
Activity [29]: Active
Activity [30]: inactive
Activity [31]: Active
Activity (Staphylococcus aureus [32]): Active
Activity (Bacillus subtilis [33]): inactive
MBC (Staphylococcus aureus [34]): > 130 µM
